Legend:
AOM/DSS-induced CRC = assay: AOM/DSS mouse model of colorectal cancer (CRC); type: in vivo, C57BL/6 mice
[1] = test system: DSS-induced acute colitis; assay: DSS mouse model, Experiment 2: acute colitis; type: in vivo, C57BL/6 female mice
Description: Experiment 2—Acute Colitis: 14-week-old C57BL/6 female mice were given 1 cycle of 2% DSS in drinking water for 7 days, immediately followed by 7 days of regular drinking water. Either vehicle or panaxynol was administered 3×/week beginning on the day prior to the first DSS cycle (day −1) until study completion (FIG. 10A). To ensure the induction of colitis and to quantify disease states, colitis symptoms were monitored every other day using the same DAI as above. Mice were euthanized on day 14—one day after the last dose of panaxynol was given. Colons were placed in the appropriate buffers for further analysis. Data presented in FIGS. 10-14 (i.e., histology, immunofluorescence, electron microscopy, and flow cytometry) was obtained using colonic tissue from 2 cohorts of Experiment 2—Acute Colitis.
Panaxynol (PA; C17H24O) was purchased from Biopurify Pytochemicals Ltd in sealed 5 mg/mL vials in pure 95% ethanol and stored at −20° C. PA was prepared fresh on the day of treatment by diluting in H2O to 1 mg/mL for administration (p.o.) at a dosage of 2.5 mg/kg. This dosage was chosen following a pilot dose-response study to determine PA's efficacy. […]
All mice underwent the same symptom monitoring and scoring. […] Symptom scores were calculated by scoring percent body weight loss, stool consistency, and rectal bleeding as previously described. Briefly, fresh colonic evacuates were smeared onto “Hemoccult” tape (Beckman Coulter) to assess severity of diarrhea and were tested with developer (Beckman Coulter) to assess rectal bleeding. Stool consistency was scored as follows: solid cylinder (0), soft cylinder and easily spreadable (2), and noncylindrical or runny (4). Bleeding was scored as follows: no positive detection of blood (0), detection of blood but not grossly visible (2), and gross visibility of blood (4). Body weight was calculated as percent bodyweight loss: 0%-5% (0), 6%-10% (1), 11%-15% (2), 15%-20% (3), 20%-25% (4), and >25% (5). Scores of all three categories were summed to obtain an overall symptom score for each mouse.
Prior to euthanasia, colonoscopies were performed (n=3/group) to visualize the colonic tissue and quantify the severity of disease (colitis and colorectal tumors) using an established protocol. Briefly, mice were anesthetized with isoflurane to perform a detailed endoscopic examination in which the endoscope was gently inserted into the rectum and through the anus. Air was applied to slowly set apart the intestinal walls for examination. As the scope advanced, pictures were taken frequently and the following were meticulously assessed and scored by the blinded primary investigator using the well-established scoring system to integrate evaluation of intestinal inflammation (i.e., focal lesions (edematous areas of mucosa, erosions/reddened areas, ulcers), perianal region findings (diarrhea, bloody anal discharge, or prolapse), transparency of the colonic wall (visualization of the intramural blood vessels), and presence of intestinal bleeding) and tumors. Scoring was performed as previously described with no modifications. Upon completion of colonoscopies, mice were placed on a warm pad set at 37° C. for 5 min.
Lamina propria (LP) cells were isolated from colons to be used for flow cytometry to identify immune cell populations within the colonic LP. Colons were rinsed in sterile ice-cold PBS and minced with scissors. Tissues were subjected to a cell dissociation solution (HBSS without Ca^2+Mg^2+ containing 5 mM EDTA and 1 mM DTT) in a shaking incubator for 30 min at 37° C. Tubes containing dissociated tissues were vortexed and passed through a 100 μm cell strainer; flow through containing intestinal epithelial cells (IECs) was discarded. Remaining tissue was subjected to a cell digestion buffer (HBSS with Ca^2+Mg^2+ containing 5% FBS, 5 mg/mL Collagenase D, 50 μg/mL DNase 1, and 1 U/mL Dispase) in a shaking incubator for 30 min at 37° C. Tubes were vortexed and passed through a 40 μm cell strainer. […]

C26 CRC cells = assay: CCK-8 cell viability of C26 CRC cells; type: cell-based; details: 24 hr, read-out: IC50, anti-proliferative activity against C26 CRC cells
Description: BMDMs were isolated as described above. On day 6 of maturation, BMDMs were subjected to 7 concentrations of PA to assess cell death: 0.001, 0.01, 0.1, 1.0, 5.0, 10.0, and 100.0 μM. On day 7 (i.e., 24 hr-post PA treatment), CCK-8 (Dojindo; Cat #CK04) assays were completed per manufacturer's instructions. C26 CRC cells were also subjected to these 7 concentrations of PA for 24 hr to assess cell death using CCK-8. Three independent experiments were carried out.

[2] = females, males, and sexes combined, vs VEH, p≤0.05
[3] = proximal colon (tumors intact) RT-qPCR, vs VEH, p≤0.05
[4] = proximal colon RT-qPCR, vs VEH, p≤0.05
[5] = proximal colon qRT-PCR, vs VEH, p≤0.05
[6] = removed tumors RT-PCR, vs VEH, p≤0.05

C=CC(O)C#CC#CC/C=C\CCCCCCC (stereo in doubt) [PA, 3(R)-(9Z)-heptadeca-1,9-dien-4,6-diyn-3-ol]
survival (AOM/DSS-induced CRC; 2.5 mg/kg p.o. 3x/week, 12 weeks, vs AOM/DSS+VEH, FIG. 1B): appears to improve survival, although non-significant
goblet cells per crypt (AOM/DSS-induced CRC; Alcian Blue, distal colon, no difference between CF and PA): completely rescued
Foxp3 gene expression in tumors (AOM/DSS-induced CRC; RT-qPCR, vs VEH, p≤0.05): decrease
colonoscopy score: focal lesions (AOM/DSS-induced CRC; after 12 weeks, vs VEH): no significant difference
colonoscopy score: perianal findings (AOM/DSS-induced CRC; after 12 weeks, vs VEH, p=0.08): no significant difference
colonoscopy score: inflammation (AOM/DSS-induced CRC; after 12 weeks, vs VEH, p≤0.05): significant reductions
colonoscopy score: intestinal bleeding (AOM/DSS-induced CRC; after 12 weeks, vs VEH, p≤0.05): significant reductions
colonoscopy score: transparency of the colonic wall (AOM/DSS-induced CRC; after 12 weeks, vs VEH, p≤0.05): significant reduction (i.e., improvement)
colonoscopy tumor score (AOM/DSS-induced CRC; after 12 weeks, vs VEH, p≤0.05): significantly reduced
abundance of CD11b+CD68+ macrophages in colonic lamina propria (AOM/DSS-induced CRC; colons with tumors intact, flow cytometry, vs VEH, p≤0.05): significantly decreased
submucosal invasion and destruction of the crypts (H&E) (AOM/DSS-induced CRC; distal colon, vs VEH): did not appear as severe
large tumors (>2 mm) (AOM/DSS-induced CRC; females and sexes combined, vs VEH, p≤0.05): significant reduction
number of medium sized tumors (1-2 mm) (AOM/DSS-induced CRC; [2]): significantly reduced
total number of tumors (AOM/DSS-induced CRC; [2]): significantly reduced
abundance of neutrophils in the colon (AOM/DSS-induced CRC; flow cytometry, n=2-3/group, statistics not performed): appeared to protect against the increased abundance
relative abundance of macrophages in colons following tumor removal (AOM/DSS-induced CRC; flow cytometry, increase with VEH vs CF, p≤0.05): ameliorated
F4/80 immunofluorescence staining in colonic tumors (AOM/DSS-induced CRC; pan macrophage marker, n=3/group): reduction in macrophages
CD68 gene expression (AOM/DSS-induced CRC; [3]): significantly suppressed
MSR-1 gene expression (AOM/DSS-induced CRC; [3]): significantly suppressed
mannose receptor C type 1 (Mrc1) gene expression (AOM/DSS-induced CRC; [3]): significantly suppressed
IL-1β gene expression (AOM/DSS-induced CRC; [4]): significant downregulation
IL-6 gene expression (AOM/DSS-induced CRC; [4]): significant downregulation
IL-10 gene expression (AOM/DSS-induced CRC; [4]): significantly downregulated
IL-13 gene expression (AOM/DSS-induced CRC; [4]): significantly downregulated
TGF-β1 gene expression (AOM/DSS-induced CRC; [4]): significantly downregulated
neutrophil marker Ly6g gene expression (AOM/DSS-induced CRC; [4]): significantly downregulated
Muc1 gene expression (AOM/DSS-induced CRC; proximal colon qRT-PCR, vs VEH, p=0.08): slightly but non-significantly reduced
Muc2 gene expression (AOM/DSS-induced CRC; [5]): significantly increased
occludin (OCLN) gene expression (AOM/DSS-induced CRC; [5]): upregulated
tight junction protein 3 (TJP3) gene expression (AOM/DSS-induced CRC; [5]): upregulated
gene expression of pro-apoptotic marker Bax in colonic tumors (AOM/DSS-induced CRC; qRT-PCR, vs VEH, p=0.09): increased, although non-significant
TGF-01 gene expression in tumors (AOM/DSS-induced CRC; removed tumors RT-PCR, vs VEH, p=0.08): suppressed
CD68 gene expression in tumors (AOM/DSS-induced CRC; [6]): significantly suppressed
IL-6 gene expression in tumors (AOM/DSS-induced CRC; [6]): suppressed
IL-13 gene expression in tumors (AOM/DSS-induced CRC; [6]): suppressed
small tumors (≤1 mm) (AOM/DSS-induced CRC; sexes combined, reduction observed, p=0.08): did not reach statistical significance
colonic TCRβ+FoxP3+ T-regs (AOM/DSS-induced CRC; tumor-removed colons, flow cytometry, between VEH and PA): no difference
percentage of Ki67 positive cells in colonic tumors (AOM/DSS-induced CRC; vs VEH, p≤0.05): significant decreased
percentage of apoptotic cells (TUNEL) in colonic tumors (AOM/DSS-induced CRC; vs VEH, p≤0.05): significant increase
overall symptom score (bodyweight loss, stool consistency, rectal bleeding) (AOM/DSS-induced CRC; weeks 1-3, 5-7 and 10-12, vs VEH, FIG. 1C): significantly suppressed
circulating lymphocytes (AOM/DSS-induced CRC; whole blood, end of study, PA vs VEH): no difference between VEH- and PA-treated groups
total WBCs (AOM/DSS-induced CRC; whole blood, end of study, across groups): no change
circulating monocytes (AOM/DSS-induced CRC; whole blood, end of study, increase with VEH vs CF, p≤0.05): rescued
neutrophil to lymphocyte ratio (NLR) (AOM/DSS-induced CRC; whole blood, end of study, p≤0.05): decrease
circulating neutrophils (AOM/DSS-induced CRC; whole blood, end of study, vs VEH, p≤0.05): ameliorate the significant increase
goblet cell count per crypt ([1]; Alcian Blue, DSS+Veh -75% vs Control, p=0.0003): rescued
rectal bleeding ([1]; DAI, vs DSS+Veh): decreased
stool consistency ([1]; DAI, vs DSS+Veh): improved
average crypt width ([1]; H&E, DSS+Veh +124% vs Control, Pax vs Control p=0.641): not different from Control
reduction in inflammation (endoscopic score) ([1]; day 14, vs DSS+Veh, p=0.012): 63%
reduction in total endoscopic scores ([1]; day 14, vs DSS+Veh, p=0.014): 62%
reduction in total lesions (endoscopic score) ([1]; day 14, vs DSS+Veh, p=0.029): 58%
reduction in erosions (endoscopic score) ([1]; day 14, vs DSS+Veh, p=0.033): 55%
reduction in ulcers (endoscopic score) ([1]; day 14, vs DSS+Veh, p=0.047): 62%
widening and gaping of the crypts (SEM 3000×) ([1]; distal colon): partially rescued
edema in the intercellular space of IECs (TEM) ([1]; distal colon, edema seen only in DSS+Veh): no edema
mucus on mucosa (SEM 2000×) ([1]; distal colon, vs DSS+Veh): more areas of mucus formation, preservation, and abundance
body weight ([1]; end of study, not significant vs DSS+Veh 18.4±0.6, p=0.383): 19.1 ± 0.4 g
CD45+CD4+ helper T-cells in colonic LP ([1]; flow cytometry, between DSS-treated groups, p=0.446): no significant differences
M1 macrophages in colonic LP ([1]; flow cytometry, vs DSS+Veh, p=0.011): decreased
relative abundance of naïve (M0) macrophages in colonic LP ([1]; flow cytometry, vs DSS+Veh, p=0.019): increased
TCRβ+FoxP3+ T-regs in colonic LP ([1]; flow cytometry, vs DSS+Veh, p=0.027): significantly increased
M2 macrophages in colonic LP ([1]; flow cytometry, vs DSS+Veh, p=0.041): decreased
LiveCD45+ immune cells in colonic LP ([1]; flow cytometry, vs DSS+Veh, p=0.056, not statistically significant): trending increase
CD11b+CD68+ macrophages in colonic LP ([1]; flow cytometry, vs DSS+Veh, p=0.07, not statistically significant): decrease
transitional (M1/M2) macrophages in colonic LP ([1]; flow cytometry, within DSS-treated groups, p=0.085): no significant differences
crypt width distribution curve ([1]; rightward shift Control to DSS+Veh, FIG. 11C): significantly (p≤0.05) improved
DAI scores ([1]; throughout treatment, vs DSS+Veh): significantly (p≤0.05) improved
IC50 (C26 CRC cells): 1 µM

Source: US20240091169A1, “POL[…] FOR TREATING INFLAMMATORY DISEASES” (UNIVERSITY OF SOUTH CAROLINA, priority 2022, published 2024)
